In brackets after ≈: the same amount, converted by molar mass. Blank lines part the entries; values can stand above or below the molecule they belong to.
What was measured:
Assay in all cases: ≥ marks a high value that may be exact or a test limit, other limits are often not marked, values filed in µg/mL are converted to µM
[1] = system: Pseudomonas aeruginosa ATCC 27853
[2] = system: Escherichia coli ATCC 25922
[3] = system: Pseudomonas aeruginosa 21328
[4] = system: Pseudomonas aeruginosa CICC 11431
[5] = system: Pseudomonas aeruginosa 25349
[6] = system: Pseudomonas aeruginosa CICC 11421
[7] = system: Pseudomonas aeruginosa CICC 10419
[8] = system: Pseudomonas aeruginosa CICC 11411
[9] = system: Pseudomonas aeruginosa CICC 21625
[10] = system: Staphylococcus aureus ATCC 29213
[11] = system: Pseudomonas aeruginosa CICC 21630
[12] = system: Enterococcus faecium ATCC 700221
[13] = system: Streptococcus pneumoniae ATCC 49619
[14] = system: Pseudomonas aeruginosa ATCC 19660
[15] = system: Staphylococcus aureus ATCC 33591
[16] = system: Staphylococcus epidermidis ATCC 51625
[17] = system: Acinetobacter baumannii ATCC 17978D-5
[18] = system: Klebsiella aerogenes ATCC 13048
[19] = system: Bacillus megaterium ATCC 10778
Beauveria bassiana = system: Beauveria bassiana
[20] = system: Saccharomyces cerevisiae PM340
[21] = system: Candida tropicalis IOC 4560
Aspergillus niger = system: Aspergillus niger
[22] = system: Staphylococcus pseudintermedius
[23] = system: Staphylococcus haemolyticus
[24] = system: Serratia marcescens ATCC 4112
[25] = system: Microsporum canis MW768151
Microsporum canis = system: Microsporum canis
[26] = system: Salmonella enterica subsp. arizonae ATCC 13314
Proteus mirabilis = system: Proteus mirabilis
Candida albicans MDM8 = system: Candida albicans MDM8
[27] = system: Trichophyton mentagrophytes
[28] = system: Enterobacter cloacae beta-12
[29] = system: Staphylococcus pseudintermedius MW767056
Staphylococcus sciuri = system: Staphylococcus sciuri
Escherichia coli SBS 363 = system: Escherichia coli SBS 363
[30] = system: Bacillus subtilis ATCC 6633
[31] = system: Alcaligenes faecalis ATCC 8750
[32] = system: Salmonella enterica subsp. enterica serovar Typhimurium ATCC 14028
[33] = system: Staphylococcus cohnii MW767053
Micrococcus luteus A270 = system: Micrococcus luteus A270
Escherichia coli D31 = system: Escherichia coli D31
Staphylococcus simulans = system: Staphylococcus simulans
[34] = system: Staphylococcus aureus ATCC 25923
Staphylococcus aureus MR = system: Staphylococcus aureus MR
[35] = system: Candida albicans ATCC 5314
[36] = system: Staphylococcus aureus NCTC 8325
Escherichia coli MG1655 = system: Escherichia coli MG1655
[37] = system: Pseudomonas aeruginosa PAO1
[38] = system: Pseudomonas aeruginosa PA7

Compound: NC(=O)[C@H](Cc1c[nH]c2ccccc12)NC(=O)[C@H](CCCN=C(N)N)NC(=O)[C@H](CCCN=C(N)N)NC(=O)[C@H](Cc1c[nH]c2ccccc12)NC(=O)[C@H](CCCN=C(N)N)NC(=O)[C@H](CCCN=C(N)N)NC(=O)[C@H](CCCN=C(N)N)NC(=O)[C@H](Cc1c[nH]c2ccccc12)NC(=O)[C@H](CCCN=C(N)N)NC(=O)[C@H](CCCN=C(N)N)NC(=O)[C@H](CCCN=C(N)N)NC(=O)[C@H](Cc1c[nH]c2ccccc12)NC(=O)[C@H](CCCN=C(N)N)NC(=O)[C@H](CCCN=C(N)N)NC(=O)[C@@H](N)Cc1c[nH]c2ccccc12 [WRRWRRRWRRRWRRW]
MIC [1]: 1.59 µM (≈ 4 µg/mL)
MIC [2]: 12.7 µM (≈ 32 µg/mL)
MIC [3]: ≥ 102 µM
MIC [4]: 3.19 µM (≈ 8 µg/mL)
MIC [5]: 12.7 µM (≈ 32 µg/mL)
MIC [6]: ≥ 102 µM
MIC [7]: ≥ 102 µM
MIC [8]: ≥ 102 µM
MIC [9]: ≥ 102 µM
MIC [10]: 6.37 µM (≈ 16 µg/mL)
MIC [11]: 6.37 µM (≈ 16 µg/mL)

Compound: CC(C)[C@H](N)C(=O)N[C@@H](C)C(=O)N[C@@H](CCC(=O)O)C(=O)N[C@@H](C)C(=O)N[C@@H](CCCN=C(N)N)C(=O)N[C@@H](CCC(N)=O)C(=O)NCC(=O)N[C@@H](CO)C(=O)N[C@@H](Cc1ccccc1)C(=O)N[C@@H](CO)C(=O)N[C@@H](Cc1ccc(O)cc1)C(=O)O [VAEARQGSFSY]
MIC [1]: 12.5 µM (≈ 15.2 µg/mL)
MIC [19]: 12.5 µM (≈ 15.2 µg/mL)
MIC (Beauveria bassiana): 25 µM (≈ 30.3 µg/mL)
MIC [20]: 25 µM (≈ 30.3 µg/mL)
MIC [21]: 25 µM (≈ 30.3 µg/mL)
MIC (Aspergillus niger): 25 µM (≈ 30.3 µg/mL)
MIC [22]: ≥ 105 µM
MIC [23]: ≥ 211 µM
MIC [24]: 25 µM (≈ 30.3 µg/mL)
MIC [25]: 0.412 µM (≈ 0.5 µg/mL)
MIC (Microsporum canis): 0.824 µM (≈ 1 µg/mL)
MIC [26]: 25 µM (≈ 30.3 µg/mL)
MIC (Proteus mirabilis): ≥ 211 µM
MIC (Candida albicans MDM8): 25 µM (≈ 30.3 µg/mL)
MIC [27]: 0.412 µM (≈ 0.5 µg/mL)
MIC [28]: 25 µM (≈ 30.3 µg/mL)
MIC [29]: ≥ 105 µM
MIC (Staphylococcus sciuri): ≥ 211 µM
MIC (Escherichia coli SBS 363): 25 µM (≈ 30.3 µg/mL)
MIC [30]: 25 µM (≈ 30.3 µg/mL)
MIC [31]: 12.5 µM (≈ 15.2 µg/mL)
MIC [32]: 12.5 µM (≈ 15.2 µg/mL)
MIC [33]: ≥ 211 µM
MIC (Micrococcus luteus A270): 6.24 µM (≈ 7.58 µg/mL)
MIC [10]: 6.24 µM (≈ 7.58 µg/mL)
MIC (Escherichia coli D31): 12.5 µM (≈ 15.2 µg/mL)
MIC (Staphylococcus simulans): ≥ 105 µM

Next, values leading:

MIC [1]: > 24.2 µM
MIC [12]: 3.02 µM (≈ 8 µg/mL)
MIC [13]: 24.2 µM (≈ 64 µg/mL)
MIC [14]: 24.2 µM (≈ 64 µg/mL)
MIC [15]: 6.04 µM (≈ 16 µg/mL)
MIC [16]: 1.51 µM (≈ 4 µg/mL)
MIC [17]: 0.755 µM (≈ 2 µg/mL)
MIC [18]: 24.2 µM (≈ 64 µg/mL)
Compound: C[C@H](NC(=O)[C@H](Cc1ccccc1)NC(=O)[C@H](C)NC(=O)[C@@H](N)Cc1ccccc1)C(=O)N[C@@H](Cc1ccccc1)C(=O)N[C@@H](C)C(=O)N[C@@H](Cc1ccccc1)C(=O)N[C@@H](CCCCN)C(=O)N[C@@H](CCCCN)C(=O)N[C@@H](C)C(=O)N[C@@H](Cc1ccccc1)C(=O)N[C@@H](CCCCN)C(=O)N[C@@H](CCCCN)C(=O)N[C@@H](Cc1ccccc1)C(=O)N[C@@H](CCCCN)C(=O)N[C@@H](CCCCN)C(=O)N[C@@H](C)C(=O)N[C@@H](Cc1ccccc1)C(=O)N[C@@H](CCCCN)C(=O)N[C@@H](CCCCN)C(=O)N[C@@H](C)C(=O)N[C@@H](Cc1ccccc1)C(=O)O [FAFAFAFKKAFKKFKKAFKKAF]

MIC [34]: 26.4 µM (≈ 64 µg/mL)
MIC (Staphylococcus aureus MR): 26.4 µM (≈ 64 µg/mL)
MIC [35]: 26.4 µM (≈ 64 µg/mL)
Compound: CC[C@H](C)[C@H](NC(=O)[C@@H](NC(=O)[C@H](CCCN=C(N)N)NC(=O)[C@H](Cc1ccccc1)NC(=O)[C@@H](N)Cc1ccc(O)cc1)[C@@H](C)O)C(=O)N[C@@H](CCCN=C(N)N)C(=O)N[C@@H](CCCN=C(N)N)C(=O)N[C@@H](Cc1ccccc1)C(=O)N[C@@H](Cc1ccccc1)C(=O)N[C@@H](CCCCN)C(=O)N[C@@H](CCCCN)C(=O)N[C@@H](CC(C)C)C(=O)N[C@@H](Cc1ccccc1)C(=O)N[C@@H](CCCCN)C(=O)N[C@H](C(=O)N[C@@H](CC(C)C)C(=O)N[C@@H](CCCCN)C(=O)N[C@@H](CCCCN)C(N)=O)[C@@H](C)O [YFRTIRRFFKKLFKTLKK]

MIC [36]: ≥ 512 µM
MIC (Escherichia coli MG1655): ≥ 512 µM
MIC [37]: > 512 µM
MIC [38]: ≥ 512 µM
Compound: CC[C@H](C)[C@H](N)C(=O)N[C@@H](CCCCN)C(=O)N[C@H](C(=O)N1CCC[C@H]1C(=O)N[C@@H](C)C(=O)N[C@H](C(=O)N[C@H](C(=O)N[C@@H](CCCCN)C(=O)N[C@@H](CC(=O)O)C(=O)N[C@H](C(=O)N[C@@H](CCC(N)=O)C(=O)N[C@@H](CCCCN)C(=O)N[C@@H](CCCCN)C(=O)N[C@H](C(=O)N[C@@H](C)C(=O)N[C@@H](CCCCN)C(=O)NCC(=O)N[C@H](C(=O)N[C@H](C(=O)N[C@@H](CO)C(=O)N[C@H](C(=O)N[C@H](C(=O)N[C@@H](C)C(=O)N[C@@H](CC(=O)O)C(=O)N[C@@H](C)C(=O)N[C@@H](CC(C)C)C(=O)N[C@@H](CO)C(=O)N[C@@H](CCCCN)C(=O)N[C@@H](CO)C(=O)O)C(C)C)[C@@H](C)O)[C@@H](C)CC)C(C)C)C(C)C)[C@@H](C)O)C(C)C)[C@@H](C)CC)C(C)C [IKVPAIVKDTQKKVAKGVISTVADALSKS]
